Assay results: the kinase profiling compilation of Christmann-Franck et al. (2016)
Values belong to the compound of their own block, whether it stands above or below them.

Key:
Test in all cases: KINOMEscan competition binding
Conditions in all cases: compound 10.0 µM
ERBB4 (human) = ERBB4 (human) (UniProt Q15303)
BRSK1 (human) = BRSK1 (human) (UniProt Q8TDC3)
AKT2 (human) = AKT2 (human) (UniProt P31751)
NTRK2 (human) = NTRK2 (human) (UniProt Q16620)
EPHA2 (human) = EPHA2 (human) (UniProt P29317)
NEK1 (human) = NEK1 (human) (UniProt Q96PY6)
MAPK9 (human) = MAPK9 (human) (UniProt P45984)
MAP4K3 (human) = MAP4K3 (human) (UniProt Q8IVH8)
MAP4K3 (human), sequence (Q8IVH8 whole entry, looked up): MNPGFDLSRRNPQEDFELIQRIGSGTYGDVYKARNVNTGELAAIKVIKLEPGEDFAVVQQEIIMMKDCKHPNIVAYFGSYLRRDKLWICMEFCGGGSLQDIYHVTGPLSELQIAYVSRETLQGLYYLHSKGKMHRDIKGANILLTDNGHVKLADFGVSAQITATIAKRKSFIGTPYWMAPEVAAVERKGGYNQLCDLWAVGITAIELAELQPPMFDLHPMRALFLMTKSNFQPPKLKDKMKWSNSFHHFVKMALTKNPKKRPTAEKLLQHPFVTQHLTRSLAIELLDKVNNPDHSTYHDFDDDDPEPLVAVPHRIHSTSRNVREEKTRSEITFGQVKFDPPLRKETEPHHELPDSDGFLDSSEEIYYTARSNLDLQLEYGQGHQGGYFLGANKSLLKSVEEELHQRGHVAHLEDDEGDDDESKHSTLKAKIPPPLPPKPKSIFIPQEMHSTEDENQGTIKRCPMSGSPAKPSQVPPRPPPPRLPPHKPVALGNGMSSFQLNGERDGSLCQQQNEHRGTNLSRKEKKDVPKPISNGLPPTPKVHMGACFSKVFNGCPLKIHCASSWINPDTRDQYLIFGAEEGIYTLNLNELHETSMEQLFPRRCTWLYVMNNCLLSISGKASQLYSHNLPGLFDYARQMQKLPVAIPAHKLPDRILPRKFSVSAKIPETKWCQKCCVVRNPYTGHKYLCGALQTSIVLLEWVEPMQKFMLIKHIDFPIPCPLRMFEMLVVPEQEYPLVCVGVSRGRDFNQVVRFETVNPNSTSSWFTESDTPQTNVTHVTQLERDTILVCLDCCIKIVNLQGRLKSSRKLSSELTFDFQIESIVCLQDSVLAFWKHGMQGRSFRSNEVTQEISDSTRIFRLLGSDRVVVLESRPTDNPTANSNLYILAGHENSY

CAMK2G (human) = CAMK2G (human) (UniProt Q13555)
RPS6KA2 KD1 (human) = RPS6KA2 KD1 (human) (UniProt Q15349)
STK4 (human) = STK4 (human) (UniProt Q13043)
DCLK2 (human) = DCLK2 (human) (UniProt Q8N568)
MARK4 (human) = MARK4 (human) (UniProt Q96L34)
PDGFRA (human) = PDGFRA (human) (UniProt P16234)
PRKCQ (human) = PRKCQ (human) (UniProt Q04759)
PRKCQ (human), sequence (Q04759 whole entry, looked up): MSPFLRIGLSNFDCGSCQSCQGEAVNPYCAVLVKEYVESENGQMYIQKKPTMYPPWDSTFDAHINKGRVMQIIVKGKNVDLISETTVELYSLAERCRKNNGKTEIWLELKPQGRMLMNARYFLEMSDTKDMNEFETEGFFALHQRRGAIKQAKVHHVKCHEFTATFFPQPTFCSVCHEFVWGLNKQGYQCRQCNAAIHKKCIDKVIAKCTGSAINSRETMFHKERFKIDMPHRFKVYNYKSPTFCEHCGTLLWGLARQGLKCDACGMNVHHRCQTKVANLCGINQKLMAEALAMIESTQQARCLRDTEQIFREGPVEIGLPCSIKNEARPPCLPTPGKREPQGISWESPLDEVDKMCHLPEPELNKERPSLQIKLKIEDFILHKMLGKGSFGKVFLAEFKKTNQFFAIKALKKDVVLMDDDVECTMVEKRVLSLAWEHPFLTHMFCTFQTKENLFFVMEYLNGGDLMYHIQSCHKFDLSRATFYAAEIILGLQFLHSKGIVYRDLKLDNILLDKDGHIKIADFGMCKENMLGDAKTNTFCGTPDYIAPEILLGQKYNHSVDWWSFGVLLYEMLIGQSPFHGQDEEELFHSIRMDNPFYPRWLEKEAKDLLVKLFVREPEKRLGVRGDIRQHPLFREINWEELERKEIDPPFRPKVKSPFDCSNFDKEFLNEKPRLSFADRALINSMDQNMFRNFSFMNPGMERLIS

PRKCD (human) = PRKCD (human) (UniProt Q05655)
CDK11B (human) = CDK11B (human) (UniProt P21127)
CDK11B (human), sequence (P21127 whole entry, looked up): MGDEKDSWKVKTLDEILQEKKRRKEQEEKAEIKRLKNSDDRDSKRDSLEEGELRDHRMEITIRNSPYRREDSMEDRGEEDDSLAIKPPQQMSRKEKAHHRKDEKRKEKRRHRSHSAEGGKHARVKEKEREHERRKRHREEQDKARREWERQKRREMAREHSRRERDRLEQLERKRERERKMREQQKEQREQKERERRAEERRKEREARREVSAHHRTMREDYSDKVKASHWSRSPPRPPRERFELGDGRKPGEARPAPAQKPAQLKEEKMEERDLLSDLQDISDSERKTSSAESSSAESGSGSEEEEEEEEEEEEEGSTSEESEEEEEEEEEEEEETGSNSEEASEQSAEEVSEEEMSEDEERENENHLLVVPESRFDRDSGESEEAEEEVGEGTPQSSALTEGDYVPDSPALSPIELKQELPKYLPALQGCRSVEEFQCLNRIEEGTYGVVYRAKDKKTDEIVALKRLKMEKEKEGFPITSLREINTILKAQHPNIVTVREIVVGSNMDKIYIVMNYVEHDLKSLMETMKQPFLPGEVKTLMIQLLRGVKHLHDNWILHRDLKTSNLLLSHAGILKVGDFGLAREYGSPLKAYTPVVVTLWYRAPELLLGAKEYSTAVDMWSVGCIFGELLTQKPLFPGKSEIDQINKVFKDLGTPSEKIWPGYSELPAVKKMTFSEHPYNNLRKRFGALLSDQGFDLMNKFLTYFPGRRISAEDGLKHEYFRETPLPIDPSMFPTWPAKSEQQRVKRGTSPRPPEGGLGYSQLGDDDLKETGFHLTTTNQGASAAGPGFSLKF

STK32C (human) = STK32C (human) (UniProt Q86UX6)
CDK14 (human) = CDK14 (human) (UniProt O94921)
CSNK1G2 (human) = CSNK1G2 (human) (UniProt P78368)
[1] = test system: EGFR (human), P00533 [P753S; 747-752 del]
EPHB4 (human) = EPHB4 (human) (UniProt P54760)
AKT3 (human) = AKT3 (human) (UniProt Q9Y243)
AKT3 (human), sequence (Q9Y243 whole entry, looked up): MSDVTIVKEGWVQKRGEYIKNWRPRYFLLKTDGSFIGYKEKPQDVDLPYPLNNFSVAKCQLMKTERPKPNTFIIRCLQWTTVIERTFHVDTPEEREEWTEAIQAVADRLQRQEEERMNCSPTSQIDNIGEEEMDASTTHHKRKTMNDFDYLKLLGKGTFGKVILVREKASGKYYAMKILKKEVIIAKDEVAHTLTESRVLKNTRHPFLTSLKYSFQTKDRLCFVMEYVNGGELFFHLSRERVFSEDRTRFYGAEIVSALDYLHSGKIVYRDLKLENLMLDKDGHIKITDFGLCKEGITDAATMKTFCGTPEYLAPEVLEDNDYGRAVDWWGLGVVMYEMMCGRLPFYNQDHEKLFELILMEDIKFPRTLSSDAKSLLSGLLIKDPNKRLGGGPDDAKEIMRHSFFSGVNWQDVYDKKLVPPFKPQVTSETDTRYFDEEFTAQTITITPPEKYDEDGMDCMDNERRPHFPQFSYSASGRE

BTK (human) = BTK (human) (UniProt Q06187)
NEK5 (human) = NEK5 (human) (UniProt Q6P3R8)
MAPKAPK2 (human) = MAPKAPK2 (human) (UniProt P49137)
TYRO3 (human) = TYRO3 (human) (UniProt Q06418)
TEK (human) = TEK (human) (UniProt Q02763)
CAMK1 (human) = CAMK1 (human) (UniProt Q14012)
AURKA (human) = AURKA (human) (UniProt O14965)
CDC42BPB (human) = CDC42BPB (human) (UniProt Q9Y5S2)
CDC42BPB (human), sequence (Q9Y5S2 whole entry, looked up): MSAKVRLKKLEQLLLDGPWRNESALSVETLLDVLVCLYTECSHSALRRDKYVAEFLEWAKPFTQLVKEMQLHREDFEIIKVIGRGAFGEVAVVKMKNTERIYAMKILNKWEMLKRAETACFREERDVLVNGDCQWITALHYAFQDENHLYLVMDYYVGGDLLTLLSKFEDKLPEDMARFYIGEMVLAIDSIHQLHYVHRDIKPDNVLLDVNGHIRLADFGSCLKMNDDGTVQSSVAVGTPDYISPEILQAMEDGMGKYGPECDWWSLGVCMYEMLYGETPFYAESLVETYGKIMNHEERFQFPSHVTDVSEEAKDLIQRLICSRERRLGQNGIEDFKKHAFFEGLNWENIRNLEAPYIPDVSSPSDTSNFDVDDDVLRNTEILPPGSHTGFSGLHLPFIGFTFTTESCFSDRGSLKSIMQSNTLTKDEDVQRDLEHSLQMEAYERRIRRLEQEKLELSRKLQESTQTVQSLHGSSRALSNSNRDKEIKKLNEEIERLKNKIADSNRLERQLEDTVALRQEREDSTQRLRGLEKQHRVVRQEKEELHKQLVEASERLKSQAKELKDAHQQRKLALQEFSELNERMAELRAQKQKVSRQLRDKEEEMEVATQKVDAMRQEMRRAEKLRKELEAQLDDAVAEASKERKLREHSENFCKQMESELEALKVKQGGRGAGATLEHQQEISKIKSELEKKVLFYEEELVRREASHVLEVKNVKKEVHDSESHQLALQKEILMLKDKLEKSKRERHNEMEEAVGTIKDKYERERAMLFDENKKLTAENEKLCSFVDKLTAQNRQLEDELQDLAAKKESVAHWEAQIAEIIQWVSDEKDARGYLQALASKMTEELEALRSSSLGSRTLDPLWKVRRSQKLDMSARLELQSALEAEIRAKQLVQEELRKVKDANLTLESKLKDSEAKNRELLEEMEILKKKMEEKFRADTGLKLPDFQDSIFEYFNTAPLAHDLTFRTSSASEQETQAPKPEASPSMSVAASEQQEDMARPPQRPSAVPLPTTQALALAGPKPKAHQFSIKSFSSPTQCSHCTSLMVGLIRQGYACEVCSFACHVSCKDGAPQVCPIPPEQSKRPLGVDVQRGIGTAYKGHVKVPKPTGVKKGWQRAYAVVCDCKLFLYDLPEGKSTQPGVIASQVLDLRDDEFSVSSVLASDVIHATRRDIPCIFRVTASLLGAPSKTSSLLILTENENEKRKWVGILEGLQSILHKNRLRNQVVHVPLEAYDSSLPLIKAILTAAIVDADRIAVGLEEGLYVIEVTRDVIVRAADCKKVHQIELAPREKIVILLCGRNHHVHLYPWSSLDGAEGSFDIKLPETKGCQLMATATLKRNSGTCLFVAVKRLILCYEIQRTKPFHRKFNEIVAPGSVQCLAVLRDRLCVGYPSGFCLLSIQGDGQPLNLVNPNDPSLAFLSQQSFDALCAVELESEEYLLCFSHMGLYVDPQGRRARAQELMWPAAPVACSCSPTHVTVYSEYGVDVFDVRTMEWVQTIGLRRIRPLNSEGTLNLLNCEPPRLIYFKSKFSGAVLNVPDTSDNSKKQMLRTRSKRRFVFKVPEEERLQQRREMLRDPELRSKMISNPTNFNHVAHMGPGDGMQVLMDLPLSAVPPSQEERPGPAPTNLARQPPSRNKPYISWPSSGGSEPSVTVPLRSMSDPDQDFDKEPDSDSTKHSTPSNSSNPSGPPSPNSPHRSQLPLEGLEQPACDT

PLK3 (human) = PLK3 (human) (UniProt Q9H4B4)
PRKAA1 (human) = PRKAA1 (human) (UniProt Q13131)
CDC2L2 (human) = CDC2L2 (human) (UniProt Q9UQ88)
FLT1 (human) = FLT1 (human) (UniProt P17948)
CDK8 (human) = CDK8 (human) (UniProt P49336)
CDK8 (human), sequence (P49336 whole entry, looked up): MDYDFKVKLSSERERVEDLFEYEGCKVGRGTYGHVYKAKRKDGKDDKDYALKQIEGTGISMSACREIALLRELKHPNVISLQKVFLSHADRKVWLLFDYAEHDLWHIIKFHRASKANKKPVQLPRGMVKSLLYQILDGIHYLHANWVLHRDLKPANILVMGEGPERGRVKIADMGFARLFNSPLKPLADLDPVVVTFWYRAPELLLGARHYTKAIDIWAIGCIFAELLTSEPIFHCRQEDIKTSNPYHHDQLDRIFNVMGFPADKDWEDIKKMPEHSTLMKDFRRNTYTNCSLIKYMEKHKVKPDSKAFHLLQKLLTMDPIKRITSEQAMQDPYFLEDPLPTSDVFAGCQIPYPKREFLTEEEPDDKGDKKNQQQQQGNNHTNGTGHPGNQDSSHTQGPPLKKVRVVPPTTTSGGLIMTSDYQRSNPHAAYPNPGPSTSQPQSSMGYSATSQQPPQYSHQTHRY

MAP3K4 (human) = MAP3K4 (human) (UniProt Q9Y6R4)
FGR (human) = FGR (human) (UniProt P09769)
[2] = molecular target: TYK2 JH1 catalytic (human) (UniProt P29597)
EPHB2 (human) = EPHB2 (human) (UniProt P29323)
PKN1 (human) = PKN1 (human) (UniProt Q16512)
RPS6KA6 KD1 (human) = RPS6KA6 KD1 (human) (UniProt Q9UK32)

kinase still bound, per cent of control (ERBB4 (human)): 100%
kinase still bound, per cent of control (BRSK1 (human)): 56%
kinase still bound, per cent of control (AKT2 (human)): 100%
kinase still bound, per cent of control (NTRK2 (human)): 36%
kinase still bound, per cent of control (EPHA2 (human)): 99%
kinase still bound, per cent of control (NEK1 (human)): 93%
kinase still bound, per cent of control (MAPK9 (human)): 100%
kinase still bound, per cent of control (MAP4K3 (human)): 45%
kinase still bound, per cent of control (CAMK2G (human)): 100%
kinase still bound, per cent of control (RPS6KA2 KD1 (human)): 68%
kinase still bound, per cent of control (STK4 (human)): 80%
kinase still bound, per cent of control (DCLK2 (human)): 0.6%
kinase still bound, per cent of control (MARK4 (human)): 66%
kinase still bound, per cent of control (PDGFRA (human)): 100%
kinase still bound, per cent of control (PRKCQ (human)): 92%
kinase still bound, per cent of control (PRKCD (human)): 100%
kinase still bound, per cent of control (CDK11B (human)): 100%
kinase still bound, per cent of control (STK32C (human)): 100%
kinase still bound, per cent of control (CDK14 (human)): 100%
kinase still bound, per cent of control (CSNK1G2 (human)): 80%
kinase still bound, per cent of control [1]: 100%
kinase still bound, per cent of control (EPHB4 (human)): 100%
kinase still bound, per cent of control (AKT3 (human)): 100%
kinase still bound, per cent of control (BTK (human)): 100%
kinase still bound, per cent of control (NEK5 (human)): 100%
kinase still bound, per cent of control (MAPKAPK2 (human)): 100%
kinase still bound, per cent of control (TYRO3 (human)): 100%
kinase still bound, per cent of control (TEK (human)): 72%
kinase still bound, per cent of control (CAMK1 (human)): 100%
kinase still bound, per cent of control (AURKA (human)): 2.4%
kinase still bound, per cent of control (CDC42BPB (human)): 100%
kinase still bound, per cent of control (PLK3 (human)): 97%
kinase still bound, per cent of control (PRKAA1 (human)): 17%
kinase still bound, per cent of control (CDC2L2 (human)): 100%
kinase still bound, per cent of control (FLT1 (human)): 94%
kinase still bound, per cent of control (CDK8 (human)): 100%
kinase still bound, per cent of control (MAP3K4 (human)): 100%
kinase still bound, per cent of control (FGR (human)): 6.6%
kinase still bound, per cent of control [2]: 1.9%
kinase still bound, per cent of control (EPHB2 (human)): 100%
kinase still bound, per cent of control (PKN1 (human)): 100%
kinase still bound, per cent of control (RPS6KA6 KD1 (human)): 61%
SMILES: CN1C(=O)c2ccccc2N(C)c2nc(Nc3ccc(N4CCC(O)CC4)cc3)ncc21

kinase still bound, per cent of control (ERBB4 (human)): 87%
kinase still bound, per cent of control (BRSK1 (human)): 100%
kinase still bound, per cent of control (AKT2 (human)): 100%
kinase still bound, per cent of control (NTRK2 (human)): 100%
kinase still bound, per cent of control (EPHA2 (human)): 95%
kinase still bound, per cent of control (NEK1 (human)): 60%
kinase still bound, per cent of control (MAPK9 (human)): 51%
kinase still bound, per cent of control (MAP4K3 (human)): 66%
kinase still bound, per cent of control (CAMK2G (human)): 80%
kinase still bound, per cent of control (RPS6KA2 KD1 (human)): 77%
kinase still bound, per cent of control (STK4 (human)): 78%
kinase still bound, per cent of control (DCLK2 (human)): 0.4%
kinase still bound, per cent of control (MARK4 (human)): 86%
kinase still bound, per cent of control (PDGFRA (human)): 98%
kinase still bound, per cent of control (PRKCQ (human)): 97%
kinase still bound, per cent of control (PRKCD (human)): 100%
kinase still bound, per cent of control (CDK11B (human)): 100%
kinase still bound, per cent of control (STK32C (human)): 75%
kinase still bound, per cent of control (CDK14 (human)): 91%
kinase still bound, per cent of control (CSNK1G2 (human)): 100%
kinase still bound, per cent of control [1]: 91%
kinase still bound, per cent of control (EPHB4 (human)): 100%
kinase still bound, per cent of control (AKT3 (human)): 61%
kinase still bound, per cent of control (BTK (human)): 78%
kinase still bound, per cent of control (NEK5 (human)): 81%
kinase still bound, per cent of control (MAPKAPK2 (human)): 100%
kinase still bound, per cent of control (TYRO3 (human)): 100%
kinase still bound, per cent of control (TEK (human)): 98%
kinase still bound, per cent of control (CAMK1 (human)): 78%
kinase still bound, per cent of control (AURKA (human)): 23%
kinase still bound, per cent of control (CDC42BPB (human)): 94%
kinase still bound, per cent of control (PLK3 (human)): 0.75%
kinase still bound, per cent of control (PRKAA1 (human)): 84%
kinase still bound, per cent of control (CDC2L2 (human)): 100%
kinase still bound, per cent of control (FLT1 (human)): 100%
kinase still bound, per cent of control (CDK8 (human)): 100%
kinase still bound, per cent of control (MAP3K4 (human)): 84%
kinase still bound, per cent of control (FGR (human)): 93%
kinase still bound, per cent of control [2]: 64%
kinase still bound, per cent of control (EPHB2 (human)): 94%
kinase still bound, per cent of control (PKN1 (human)): 100%
kinase still bound, per cent of control (RPS6KA6 KD1 (human)): 87%
SMILES: COc1cc(N2CCC(O)CC2)ccc1Nc1ncc2c(n1)N1CCc3cccc(c31)C(=O)N2C

kinase still bound, per cent of control (ERBB4 (human)): 62%
kinase still bound, per cent of control (BRSK1 (human)): 91%
kinase still bound, per cent of control (AKT2 (human)): 100%
kinase still bound, per cent of control (NTRK2 (human)): 2.4%
kinase still bound, per cent of control (EPHA2 (human)): 100%
kinase still bound, per cent of control (NEK1 (human)): 95%
kinase still bound, per cent of control (MAPK9 (human)): 69%
kinase still bound, per cent of control (MAP4K3 (human)): 100%
kinase still bound, per cent of control (CAMK2G (human)): 100%
kinase still bound, per cent of control (RPS6KA2 KD1 (human)): 61%
kinase still bound, per cent of control (STK4 (human)): 100%
kinase still bound, per cent of control (DCLK2 (human)): 89%
kinase still bound, per cent of control (MARK4 (human)): 84%
kinase still bound, per cent of control (PDGFRA (human)): 91%
kinase still bound, per cent of control (PRKCQ (human)): 59%
kinase still bound, per cent of control (PRKCD (human)): 100%
kinase still bound, per cent of control (CDK11B (human)): 100%
kinase still bound, per cent of control (STK32C (human)): 100%
kinase still bound, per cent of control (CDK14 (human)): 100%
kinase still bound, per cent of control (CSNK1G2 (human)): 92%
kinase still bound, per cent of control [1]: 39%
kinase still bound, per cent of control (EPHB4 (human)): 100%
kinase still bound, per cent of control (AKT3 (human)): 100%
kinase still bound, per cent of control (BTK (human)): 23%
kinase still bound, per cent of control (NEK5 (human)): 100%
kinase still bound, per cent of control (MAPKAPK2 (human)): 96%
kinase still bound, per cent of control (TYRO3 (human)): 100%
kinase still bound, per cent of control (TEK (human)): 100%
kinase still bound, per cent of control (CAMK1 (human)): 100%
kinase still bound, per cent of control (AURKA (human)): 78%
kinase still bound, per cent of control (CDC42BPB (human)): 100%
kinase still bound, per cent of control (PLK3 (human)): 83%
kinase still bound, per cent of control (PRKAA1 (human)): 87%
kinase still bound, per cent of control (CDC2L2 (human)): 100%
kinase still bound, per cent of control (FLT1 (human)): 45%
kinase still bound, per cent of control (CDK8 (human)): 55%
kinase still bound, per cent of control (MAP3K4 (human)): 95%
kinase still bound, per cent of control (FGR (human)): 73%
kinase still bound, per cent of control [2]: 66%
kinase still bound, per cent of control (EPHB2 (human)): 82%
kinase still bound, per cent of control (PKN1 (human)): 69%
kinase still bound, per cent of control (RPS6KA6 KD1 (human)): 93%
SMILES: COc1cc(N2CCN(C)CC2)ccc1Nc1ncc2c(n1)Nc1ccccc1NC2=O
